# Test results taken from PubChem BioAssay AID1919007 (Molecular Pharmacology Branch, DTP, NCI, 2023).
# System: A498 complex spheroids with HUVEC/MSC, growth
# Test: Anticancer human tumor A498 cell line growth inhibition [AhR];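 also: seven day exposure starting three days after spheroid seeding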;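 as to viability, T/C: luminescence signal used as a surrogate for viable cells; luminescence viability scaled so 100% equals DMSO vehicle wells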
# Details: for IC50: curve of first compound; for viability, T/C: stronger effect = lower value
# Summary of the method: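 Agents were dosed in half-log steps down from roughly clinical Cmax, or from 10 microM where Cmax was unknown, alone and with AhR antagonists. Read-out: percent test/control growth of tumor spheroids containing HUVEC and MSC stromal cells.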
# [1] = second compound 0.1 µM, first compound 0.00949 µM
# [2] = second compound 0.1 µM, first compound 0.03 µM
# [3] = second compound 0.1 µM, first compound 0.0949 µM
# [4] = second compound 0.1 µM, first compound 0.3 µM
# [5] = second compound 0.316 µM, first compound 0.00949 µM
# [6] = second compound 0.316 µM, first compound 0.03 µM
# [7] = second compound 0.316 µM, first compound 0.0949 µM
# [8] = second compound 0.316 µM, first compound 0.3 µM
# [9] = second compound 1 µM, first compound 0.00949 µM
# [10] = second compound 1 µM, first compound 0.03 µM
# [11] = second compound 1 µM, first compound 0.0949 µM
# [12] = second compound 1 µM, first compound 0.3 µM
# [13] = second compound 3.16 µM, first compound 0.00949 µM
# [14] = second compound 3.16 µM, first compound 0.03 µM
# [15] = second compound 3.16 µM, first compound 0.0949 µM
# [16] = second compound 3.16 µM, first compound 0.3 µM
# [17] = second compound 10 µM, first compound 0.00949 µM
# [18] = second compound 10 µM, first compound 0.03 µM
# [19] = second compound 10 µM, first compound 0.0949 µM
# [20] = second compound 10 µM, first compound 0.3 µM
structure (smiles),measurement,setting,value
CC1COCCN1c1cc(C2(S(C)(=N)=O)CC2)nc(-c2ccnc3[nH]ccc23)n1 (stereo not given) + CC(CO)NC(=O)c1cc(-c2ccc(Cl)cc2)nn(-c2cnn(C)c2)c1=O,IC50,second compound 0.1 µM,1770 nM
same,IC50,second compound 0.316 µM,1640 nM
same,IC50,second compound 1 µM,1280 nM
same,IC50,second compound 3.16 µM,1190 nM
same,IC50,second compound 10 µM,784 nM
same,"viability, T/C","second compound 0.1 µM, first compound 0.0316 µM",96.6%
same,"viability, T/C","second compound 0.1 µM, first compound 0.1 µM",94.9%
same,"viability, T/C","second compound 0.1 µM, first compound 0.316 µM",85.2%
same,"viability, T/C","second compound 0.1 µM, first compound 1 µM",66%
same,"viability, T/C","second compound 0.1 µM, first compound 3.16 µM",34.2%
same,"viability, T/C","second compound 0.1 µM, first compound 10 µM",18.2%
same,"viability, T/C","second compound 0.316 µM, first compound 0.0316 µM",88.7%
same,"viability, T/C","second compound 0.316 µM, first compound 0.1 µM",89.6%
same,"viability, T/C","second compound 0.316 µM, first compound 0.316 µM",84%
same,"viability, T/C","second compound 0.316 µM, first compound 1 µM",65.1%
same,"viability, T/C","second compound 0.316 µM, first compound 3.16 µM",30.2%
same,"viability, T/C","second compound 0.316 µM, first compound 10 µM",19.7%
same,"viability, T/C","second compound 1 µM, first compound 0.0316 µM",84.3%
same,"viability, T/C","second compound 1 µM, first compound 0.1 µM",86.8%
same,"viability, T/C","second compound 1 µM, first compound 0.316 µM",87%
same,"viability, T/C","second compound 1 µM, first compound 1 µM",53.5%
same,"viability, T/C","second compound 1 µM, first compound 3.16 µM",30.6%
same,"viability, T/C","second compound 1 µM, first compound 10 µM",17.1%
same,"viability, T/C","second compound 3.16 µM, first compound 0.0316 µM",80.6%
same,"viability, T/C","second compound 3.16 µM, first compound 0.1 µM",81.8%
same,"viability, T/C","second compound 3.16 µM, first compound 0.316 µM",78.5%
same,"viability, T/C","second compound 3.16 µM, first compound 1 µM",52.1%
same,"viability, T/C","second compound 3.16 µM, first compound 3.16 µM",29.1%
same,"viability, T/C","second compound 3.16 µM, first compound 10 µM",16.5%
same,"viability, T/C","second compound 10 µM, first compound 0.0316 µM",70.1%
same,"viability, T/C","second compound 10 µM, first compound 0.1 µM",65.7%
same,"viability, T/C","second compound 10 µM, first compound 0.316 µM",62.8%
same,"viability, T/C","second compound 10 µM, first compound 1 µM",46.9%
same,"viability, T/C","second compound 10 µM, first compound 3.16 µM",25.8%
same,"viability, T/C","second compound 10 µM, first compound 10 µM",17.7%
Nc1ncn(C2CC(O)C(CO)S2)c(=O)n1 (stereo not given) + CC(CO)NC(=O)c1cc(-c2ccc(Cl)cc2)nn(-c2cnn(C)c2)c1=O,IC50,second compound 0.1 µM,> 300 nM
same,IC50,second compound 0.316 µM,> 300 nM
same,IC50,second compound 1 µM,> 300 nM
same,IC50,second compound 3.16 µM,> 300 nM
same,IC50,second compound 10 µM,> 300 nM
same,"viability, T/C","second compound 0.1 µM, first compound 0.000949 µM",98%
same,"viability, T/C","second compound 0.1 µM, first compound 0.003 µM",101%
same,"viability, T/C",[1],96.3%
same,"viability, T/C",[2],93.8%
same,"viability, T/C",[3],83.6%
same,"viability, T/C",[4],68.8%
same,"viability, T/C","second compound 0.316 µM, first compound 0.000949 µM",93%
same,"viability, T/C","second compound 0.316 µM, first compound 0.003 µM",109%
same,"viability, T/C",[5],95.5%
same,"viability, T/C",[6],86%
same,"viability, T/C",[7],83.4%
same,"viability, T/C",[8],72.1%
same,"viability, T/C","second compound 1 µM, first compound 0.000949 µM",96.5%
same,"viability, T/C","second compound 1 µM, first compound 0.003 µM",99%
same,"viability, T/C",[9],98.2%
same,"viability, T/C",[10],92.5%
same,"viability, T/C",[11],87.4%
same,"viability, T/C",[12],70.3%
same,"viability, T/C","second compound 3.16 µM, first compound 0.000949 µM",87.5%
same,"viability, T/C","second compound 3.16 µM, first compound 0.003 µM",90.9%
same,"viability, T/C",[13],105%
same,"viability, T/C",[14],76.6%
same,"viability, T/C",[15],69.7%
same,"viability, T/C",[16],70.6%
same,"viability, T/C","second compound 10 µM, first compound 0.000949 µM",74.9%
same,"viability, T/C","second compound 10 µM, first compound 0.003 µM",78.3%
same,"viability, T/C",[17],78.3%
same,"viability, T/C",[18],71.9%
same,"viability, T/C",[19],65%
same,"viability, T/C",[20],59.3%
O=C(C=Cn1cnc(-c2cc(C(F)(F)F)cc(C(F)(F)F)c2)n1)NNc1cnccn1 + CC(CO)NC(=O)c1cc(-c2ccc(Cl)cc2)nn(-c2cnn(C)c2)c1=O,IC50,second compound 0.1 µM,58.5 nM
same,IC50,second compound 0.316 µM,51.6 nM
same,IC50,second compound 1 µM,45.8 nM
same,IC50,second compound 3.16 µM,32.7 nM
same,IC50,second compound 10 µM,9.75 nM
same,"viability, T/C",[1],72.7%
same,"viability, T/C",[2],69%
same,"viability, T/C",[3],36.2%
same,"viability, T/C",[4],23.2%
same,"viability, T/C","second compound 0.1 µM, first compound 0.949 µM",22.3%
same,"viability, T/C","second compound 0.1 µM, first compound 3 µM",17.8%
same,"viability, T/C",[5],74.8%
same,"viability, T/C",[6],62.7%
same,"viability, T/C",[7],35.4%
same,"viability, T/C",[8],23.1%
same,"viability, T/C","second compound 0.316 µM, first compound 0.949 µM",17.9%
same,"viability, T/C","second compound 0.316 µM, first compound 3 µM",14.7%
same,"viability, T/C",[9],67.2%
same,"viability, T/C",[10],58.8%
same,"viability, T/C",[11],35.3%
same,"viability, T/C",[12],23.1%
same,"viability, T/C","second compound 1 µM, first compound 0.949 µM",18.5%
same,"viability, T/C","second compound 1 µM, first compound 3 µM",16.7%
same,"viability, T/C",[13],61.3%
same,"viability, T/C",[14],51.4%
same,"viability, T/C",[15],32.1%
same,"viability, T/C",[16],20.7%
same,"viability, T/C","second compound 3.16 µM, first compound 0.949 µM",15.7%
same,"viability, T/C","second compound 3.16 µM, first compound 3 µM",18.4%
same,"viability, T/C",[17],49.9%
same,"viability, T/C",[18],46.5%
same,"viability, T/C",[19],31.2%
same,"viability, T/C",[20],20.9%
same,"viability, T/C","second compound 10 µM, first compound 0.949 µM",18.5%
same,"viability, T/C","second compound 10 µM, first compound 3 µM",17.4%
